Source: patent publication US11708344B2, “Flavone derivatives for the treatment and prophylaxis of hepatitis B virus disease” (Hoffmann-La Roche Inc., priority 2018, dated 2023)

What was measured:
[1] = test system: HBsAg in HBV-infected PHH; assay: Cryopreserved primary human hepatocytes (PHH) HBV infection assay, extracellular HBsAg (CLIA); assay type: cell-based; settings: Hepatitis B virus, Hepatocyte, 216 h, read-out: HBsAg IC50, Cryopreserved PHH infected with HBV, 9 days post-compound treatment, extracellular HBsAg
How it was run: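 Cryopreserved PHH were infected with 5.8×10^6 HBV genome equivalents in medium with 4% PEG8000 and 1% DMSO. After 9 days of treatment, extracellular HBsAg was measured by CLIA, and IC50 was derived from a 4-parameter logistic fit.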

cccDNA in HepDES19 cells = assay: cccDNA Southern Blot assay; assay type: cell-based, HBV; settings: 5 days' compound treatment, FIG. 1
Method: HepDES19 cells were seeded at 4*10^6 cells per T150 in the culture medium (Dulbecco's Modified Eagle Medium: Nutrient Mixture F-12 [DMEM-F12, Gibco Cat. 11320-82], 10% Fetal Bovine Serum [FBS, Clontech Cat. 631101], 0.1 mM Non-Essential Amino Acids Solution [NEAA, Gibco Cat. 11140-050], 50 μg/mL Penicillin-Streptomycin [PS, Invitrogen Cat. 15140-163], 500 μg/mL Geneticin [G418, Invitrogen Cat. 10131-027]) in the absence of Tet for 8 days. These cells were seeded at the density of 1×10^6 cells per well in 6-well plate. At 24 hours after seeding, serial dilutions of compounds made with DMSO (Sigma, Cat. D2650) were further diluted with the same culture medium as described above before they were added to the cells to reach desired final compound concentrations and 1% DMSO concentration. After 5 days' compound treatment, the cells growing in one well from 6-well plate were re-suspended with 500 μL re-suspension buffer (50 mM tris [hydroxymethyl]amino methane pH 7.5), 10 mM ethylenediaminetetraacetic acid (EDTA), 50 μg/mL RNase A [Qiagen, Cat. 158922], 500 μL of 1.2% sodium dodecyl sulfate (SDS) was then added into the re-suspended cells to lyse the cells. After 15 minutes' incubation, 700 μL precipitation buffer (3M cesium chloride, 1M potassium acetate, 0.67M acetic acid) was added and the lysate was incubated at 4° C. for 2 h. […]

O=c1cc(-c2ccc(Br)cc2OCCO[C@H]2C[C@@H](C(=O)O)C2)oc2c(Cl)cccc12 [Example C003-A, Cis-3-[2-[5-bromo-2-(8-chloro-4-oxo-chromen-2-yl)phenoxy]ethoxy]cyclobutanecarboxylic acid]
IC50 [1]: 8.77 µM | cccDNA level (Southern Blot) (cccDNA in HepDES19 cells): dose-dependently reduced cccDNA level
